# Experiments:
# Homo sapiens [1] = organism: Homo sapiens; test: Selectivity index, ratio IC50 for inhibition of recombinant human full-length N-terminal His6-tagged p110alpha/untagged full-length p85alpha expressed in baculovirus infected Sf21 cells to ratio IC50 for inhibition of recombinant human full-length N-terminal GST-tagged p110delta/untagged full-length p85alpha expressed in baculovirus infected Sf21 cells
# Homo sapiens [2] = organism: Homo sapiens; test: Selectivity index, ratio IC50 for inhibition of recombinant human N-terminal His6-tagged full-length p120gamma expressed in Sf21 insect cells to ratio IC50 for inhibition of recombinant human full-length N-terminal GST-tagged p110delta/untagged full-length p85alpha expressed in baculovirus infected Sf21 cells
# [3] = Volume of drug distribution in rat at 0.5 mg/kg, iv or 1 mg/kg, po; assay type: ADME, organism-based; settings: in vivo
# [4] = biological target: 5-hydroxytryptamine receptor 2C (Homo sapiens) (UniProt P28335); test: Displacement of [3H]mesulergine from human recombinant 5HT2C receptor expressed in CHOK1 cells at 10 uM incubated for 60 mins by radiometric scintillation assay relative to control; assay type: cell-based; settings: CHO-K1
# Chain of 5-hydroxytryptamine receptor 2C (Homo sapiens) (P28335 whole entry, the tested form may be a part): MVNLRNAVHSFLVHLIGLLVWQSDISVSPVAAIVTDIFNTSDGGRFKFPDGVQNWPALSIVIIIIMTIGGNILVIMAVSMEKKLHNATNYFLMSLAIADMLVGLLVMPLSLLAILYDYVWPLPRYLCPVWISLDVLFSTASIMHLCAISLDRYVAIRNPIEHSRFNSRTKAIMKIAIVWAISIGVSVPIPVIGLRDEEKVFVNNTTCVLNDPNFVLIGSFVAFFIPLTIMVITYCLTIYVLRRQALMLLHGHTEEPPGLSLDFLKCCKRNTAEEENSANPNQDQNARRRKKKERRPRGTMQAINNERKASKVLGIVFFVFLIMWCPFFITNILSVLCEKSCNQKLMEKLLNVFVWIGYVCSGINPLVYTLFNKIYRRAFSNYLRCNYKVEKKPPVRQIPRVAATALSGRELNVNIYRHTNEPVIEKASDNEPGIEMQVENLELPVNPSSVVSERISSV
# [5] = biological target: Serine/threonine-protein kinase MRCK beta (Homo sapiens, UniProt Q9Y5S2); test: Inhibition of recombinant human His-tagged MRCKB catalytic domain expressed in baculovirus expression system using serine/threonine-13 peptide as substrate incubated for 60 mins in presence of ATP by Z'-LYTE assay
# [6] = biological target: G protein-coupled receptor kinase 4 (Homo sapiens, UniProt P32298); test: Inhibition of recombinant full length human GST-tagged GRK4 expressed in baculovirus expression system using serine/threonine-16 peptide as substrate incubated for 60 mins in presence of ATP by Z'-LYTE assay
# Chain of G protein-coupled receptor kinase 4 (P32298 whole entry): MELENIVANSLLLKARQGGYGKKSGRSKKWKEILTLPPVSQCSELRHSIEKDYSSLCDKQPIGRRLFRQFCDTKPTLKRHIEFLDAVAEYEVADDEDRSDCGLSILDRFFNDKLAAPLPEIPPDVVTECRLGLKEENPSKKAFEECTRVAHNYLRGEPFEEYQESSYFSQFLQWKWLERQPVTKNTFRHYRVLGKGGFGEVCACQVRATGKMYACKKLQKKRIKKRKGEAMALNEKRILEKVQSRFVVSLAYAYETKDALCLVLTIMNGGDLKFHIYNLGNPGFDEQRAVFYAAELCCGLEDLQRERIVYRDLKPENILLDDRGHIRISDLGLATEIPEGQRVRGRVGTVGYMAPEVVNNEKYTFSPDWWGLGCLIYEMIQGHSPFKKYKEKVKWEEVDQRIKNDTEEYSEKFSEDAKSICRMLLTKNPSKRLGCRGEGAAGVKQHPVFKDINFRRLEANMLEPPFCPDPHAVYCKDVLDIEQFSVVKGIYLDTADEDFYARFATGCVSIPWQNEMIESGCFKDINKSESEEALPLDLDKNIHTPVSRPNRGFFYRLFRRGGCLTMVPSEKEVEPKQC
# [7] = biological target: MAP kinase-activated protein kinase 3 (Homo sapiens, UniProt Q16644); test: Inhibition of recombinant His-tagged human full length MAPKAPK3 expressed in baculovirus expression system using Ser/Thr-04 peptide as substrate after 1 hr in presence of ATP by Z'LYTE assay
# Chain of MAP kinase-activated protein kinase 3 (Q16644 whole entry): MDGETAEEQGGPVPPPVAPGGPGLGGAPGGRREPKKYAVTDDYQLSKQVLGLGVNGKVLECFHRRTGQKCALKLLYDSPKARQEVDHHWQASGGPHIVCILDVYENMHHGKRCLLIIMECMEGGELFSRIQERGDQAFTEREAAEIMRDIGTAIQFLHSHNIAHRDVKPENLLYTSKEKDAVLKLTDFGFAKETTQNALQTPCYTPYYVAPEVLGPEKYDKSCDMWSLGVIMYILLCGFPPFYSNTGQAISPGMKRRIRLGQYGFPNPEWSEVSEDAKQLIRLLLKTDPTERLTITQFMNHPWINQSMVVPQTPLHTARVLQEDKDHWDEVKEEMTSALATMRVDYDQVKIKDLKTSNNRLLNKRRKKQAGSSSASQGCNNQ
# [8] = biological target: Sodium-dependent serotonin transporter (Homo sapiens) (UniProt P31645); test: Displacement of [3H]paroxetine from full length recombinant human […] expressed in HEK293 cells at 10 uM after 60 mins by radiometric scintillation analysis relative to control; assay type: cell-based
# [9] = biological target: Melanocortin receptor 5 (Homo sapiens) (UniProt P33032); test: Displacement of [125I]NDP-alpha-MSH from full length human recombinant MC5 receptor expressed in HEK293 cells at 10 uM measured after 120 mins by radiometric scintillation analysis relative to control; assay type: cell-based
# Chain of Melanocortin receptor 5 (Homo sapiens) (P33032 whole entry): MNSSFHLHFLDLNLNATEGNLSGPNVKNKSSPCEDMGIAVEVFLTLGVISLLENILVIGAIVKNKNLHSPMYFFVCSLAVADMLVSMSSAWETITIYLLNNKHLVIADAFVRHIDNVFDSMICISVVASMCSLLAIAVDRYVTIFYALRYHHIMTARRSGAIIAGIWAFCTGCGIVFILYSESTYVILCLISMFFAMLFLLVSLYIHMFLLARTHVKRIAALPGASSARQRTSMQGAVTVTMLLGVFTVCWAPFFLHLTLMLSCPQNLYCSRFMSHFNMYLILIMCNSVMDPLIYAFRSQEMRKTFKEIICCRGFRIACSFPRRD
# [10] = biological target: GABA-A receptor; anion channel (Rattus norvegicus) (UniProt O09028+P15431+P18506+P18508+P19969+P20236+P23574+P23576+P28471+P28473+P30191+P62813+P63079+P63138+Q91ZM7+Q9ES14); test: Displacement of [3H]-Ro15-1788 from GABA(A) receptor in Wistar rat hippocampus at 10 uM incubated for 120 mins by radiometric scintillation analysis relative to control; assay type: tissue-based
# [11] = biological target: Cannabinoid receptor 2 (Homo sapiens) (UniProt P34972); test: Displacement of [3H]WIN55212-2 from recombinant full length human recombinant CB2 receptor expressed in CHOK1 cells at 10 uM measured after 90 mins by radiometric scintillation analysis relative to control; assay type: cell-based; settings: CHO-K1
# Caspase-9 (Homo sapiens) = Caspase-9 (Homo sapiens) (UniProt P55211); test: Inhibition of recombinant human caspase 9 expressed in Escherichia coli at 10 uM using Ac-LEHD-AFC as substrate after 60 mins by spectrophotometric analysis relative to control
# Chain of Caspase-9 (Homo sapiens) (P55211 1-315 limits assumed): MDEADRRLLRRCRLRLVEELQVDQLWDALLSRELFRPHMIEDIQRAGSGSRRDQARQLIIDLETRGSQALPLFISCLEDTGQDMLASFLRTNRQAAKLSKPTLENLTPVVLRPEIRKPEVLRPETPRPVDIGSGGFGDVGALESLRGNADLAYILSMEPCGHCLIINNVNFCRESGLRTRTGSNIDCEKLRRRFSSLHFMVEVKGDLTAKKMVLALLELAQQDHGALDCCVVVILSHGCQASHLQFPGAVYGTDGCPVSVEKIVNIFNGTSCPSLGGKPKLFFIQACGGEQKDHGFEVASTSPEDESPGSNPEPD
# Chain of Caspase-9 (Homo sapiens) (P55211 331-416 limits assumed): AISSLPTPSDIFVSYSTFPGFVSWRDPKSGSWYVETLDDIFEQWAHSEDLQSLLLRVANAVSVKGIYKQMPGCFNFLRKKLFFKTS
# [12] = biological target: Serine/threonine-protein kinase Chk2 (Homo sapiens, UniProt O96017); test: Inhibition of recombinant human full-length His-tagged CHEK2 expressed in baculovirus expression system using FRET-labeled Ser/Thr 07 peptide as substrate measured after 1 hr in presence of ATP by Z'-lyte assay
# Ephrin type-A receptor 5 = Ephrin type-A receptor 5 (Homo sapiens, UniProt P54756); test: Inhibition of recombinant human GST-tagged EPHA5 cytoplasmic domain expressed in baculovirus expression system using tyrosine-01 peptide as substrate incubated for 60 mins in presence of ATP by Z'-Lyte assay
# Ephrin type-A receptor 8 = Ephrin type-A receptor 8 (Homo sapiens, UniProt P29322); test: Inhibition of recombinant human GST-tagged EPHA8 catalytic domain (565 to 1005 residues) expressed in baculovirus expression system using tyrosine-2 peptide as substrate incubated for 60 mins in presence of ATP by Z'-LYTE assay
# [13] = biological target: Receptor tyrosine-protein kinase erbB-4 (Homo sapiens, UniProt Q15303); test: Inhibition of recombinant human N-terminal GST-tagged ERBB4 catalytic domain (708 to 993 residues) expressed in baculovirus expression system using tyrosine-1 peptide as substrate incubated for 60 mins in presence of ATP by Z'-LYTE assay
# Chain of Receptor tyrosine-protein kinase erbB-4 (Q15303 whole entry, the tested form may be a part): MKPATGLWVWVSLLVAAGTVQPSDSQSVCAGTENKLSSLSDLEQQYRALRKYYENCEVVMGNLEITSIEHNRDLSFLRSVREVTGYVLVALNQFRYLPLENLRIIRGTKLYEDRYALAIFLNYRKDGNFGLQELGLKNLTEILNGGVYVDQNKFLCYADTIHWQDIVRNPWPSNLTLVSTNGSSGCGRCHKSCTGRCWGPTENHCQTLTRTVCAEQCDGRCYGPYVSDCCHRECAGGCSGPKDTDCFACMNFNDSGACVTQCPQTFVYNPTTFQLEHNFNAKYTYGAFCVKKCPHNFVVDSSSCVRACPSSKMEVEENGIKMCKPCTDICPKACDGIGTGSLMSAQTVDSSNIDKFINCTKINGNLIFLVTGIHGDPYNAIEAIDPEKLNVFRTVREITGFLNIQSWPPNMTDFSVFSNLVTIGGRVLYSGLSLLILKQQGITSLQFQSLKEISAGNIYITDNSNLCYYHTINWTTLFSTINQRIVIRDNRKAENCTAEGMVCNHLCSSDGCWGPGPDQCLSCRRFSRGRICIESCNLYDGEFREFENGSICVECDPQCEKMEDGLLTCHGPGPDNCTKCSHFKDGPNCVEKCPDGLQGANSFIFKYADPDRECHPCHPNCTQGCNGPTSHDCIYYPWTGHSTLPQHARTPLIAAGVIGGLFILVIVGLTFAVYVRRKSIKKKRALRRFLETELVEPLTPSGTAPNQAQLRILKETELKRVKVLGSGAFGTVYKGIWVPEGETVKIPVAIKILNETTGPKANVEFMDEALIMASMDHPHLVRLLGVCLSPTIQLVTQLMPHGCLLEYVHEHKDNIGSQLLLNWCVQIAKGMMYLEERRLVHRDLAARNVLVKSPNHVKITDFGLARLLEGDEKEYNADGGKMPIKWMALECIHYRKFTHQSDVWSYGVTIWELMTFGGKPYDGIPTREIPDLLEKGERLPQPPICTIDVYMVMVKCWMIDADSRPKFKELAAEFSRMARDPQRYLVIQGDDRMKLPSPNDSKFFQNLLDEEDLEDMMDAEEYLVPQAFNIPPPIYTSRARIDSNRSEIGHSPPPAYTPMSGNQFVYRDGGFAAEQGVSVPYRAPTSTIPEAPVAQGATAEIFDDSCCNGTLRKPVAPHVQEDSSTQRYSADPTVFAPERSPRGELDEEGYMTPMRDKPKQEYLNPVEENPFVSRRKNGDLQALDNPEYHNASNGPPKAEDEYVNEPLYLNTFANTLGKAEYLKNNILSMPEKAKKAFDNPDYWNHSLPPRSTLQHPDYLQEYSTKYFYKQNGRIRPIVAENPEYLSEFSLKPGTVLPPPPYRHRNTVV
# [14] = biological target: Receptor-type tyrosine-protein kinase FLT3 (Homo sapiens, UniProt P36888); test: Inhibition of recombinant human His-tagged FLT3 cytoplasmic domain (564 to 958 residues) expressed in baculovirus expression system using tyrosine-2 peptide as substrate incubated for 60 mins in presence of ATP by Z'-LYTE assay
# Chain of Receptor-type tyrosine-protein kinase FLT3 (P36888 whole entry, the tested form may be a part): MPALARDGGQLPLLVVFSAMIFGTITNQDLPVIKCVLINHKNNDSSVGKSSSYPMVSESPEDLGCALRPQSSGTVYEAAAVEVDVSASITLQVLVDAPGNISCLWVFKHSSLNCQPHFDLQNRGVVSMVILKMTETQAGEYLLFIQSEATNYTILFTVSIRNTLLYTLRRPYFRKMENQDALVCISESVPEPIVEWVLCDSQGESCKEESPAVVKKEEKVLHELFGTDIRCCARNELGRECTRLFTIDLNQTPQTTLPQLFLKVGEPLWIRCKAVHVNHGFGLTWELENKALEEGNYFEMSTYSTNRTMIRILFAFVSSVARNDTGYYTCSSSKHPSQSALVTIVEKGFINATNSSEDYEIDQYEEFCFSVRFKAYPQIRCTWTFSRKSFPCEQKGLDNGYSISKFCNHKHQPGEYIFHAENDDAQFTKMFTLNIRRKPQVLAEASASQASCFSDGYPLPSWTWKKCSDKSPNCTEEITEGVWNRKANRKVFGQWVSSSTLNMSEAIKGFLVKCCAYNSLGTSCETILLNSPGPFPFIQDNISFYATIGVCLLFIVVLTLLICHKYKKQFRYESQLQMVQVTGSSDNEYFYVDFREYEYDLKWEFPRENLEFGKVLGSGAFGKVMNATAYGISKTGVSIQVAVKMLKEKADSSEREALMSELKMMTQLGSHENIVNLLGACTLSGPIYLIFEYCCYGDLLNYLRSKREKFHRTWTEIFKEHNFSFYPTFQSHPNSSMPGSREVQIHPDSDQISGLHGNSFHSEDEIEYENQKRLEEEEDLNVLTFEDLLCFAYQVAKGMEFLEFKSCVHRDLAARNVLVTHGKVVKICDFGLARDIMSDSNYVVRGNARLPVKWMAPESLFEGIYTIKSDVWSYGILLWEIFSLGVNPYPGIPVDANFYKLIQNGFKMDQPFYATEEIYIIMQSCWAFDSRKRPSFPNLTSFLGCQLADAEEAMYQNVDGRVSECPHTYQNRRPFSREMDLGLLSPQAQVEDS
# [15] = biological target: Tyrosine-protein kinase Fyn (Homo sapiens, UniProt P06241); test: Inhibition of recombinant full length C-terminal His-tagged human FYN cytoplasmic domain expressed in baculovirus expression system using fluorophore-labeled tyrosine-2 peptide as substrate after 1 hr in presence of ATP by Z'-Lyte assay
# Chain of Tyrosine-protein kinase Fyn (P06241 whole entry, the tested form may be a part): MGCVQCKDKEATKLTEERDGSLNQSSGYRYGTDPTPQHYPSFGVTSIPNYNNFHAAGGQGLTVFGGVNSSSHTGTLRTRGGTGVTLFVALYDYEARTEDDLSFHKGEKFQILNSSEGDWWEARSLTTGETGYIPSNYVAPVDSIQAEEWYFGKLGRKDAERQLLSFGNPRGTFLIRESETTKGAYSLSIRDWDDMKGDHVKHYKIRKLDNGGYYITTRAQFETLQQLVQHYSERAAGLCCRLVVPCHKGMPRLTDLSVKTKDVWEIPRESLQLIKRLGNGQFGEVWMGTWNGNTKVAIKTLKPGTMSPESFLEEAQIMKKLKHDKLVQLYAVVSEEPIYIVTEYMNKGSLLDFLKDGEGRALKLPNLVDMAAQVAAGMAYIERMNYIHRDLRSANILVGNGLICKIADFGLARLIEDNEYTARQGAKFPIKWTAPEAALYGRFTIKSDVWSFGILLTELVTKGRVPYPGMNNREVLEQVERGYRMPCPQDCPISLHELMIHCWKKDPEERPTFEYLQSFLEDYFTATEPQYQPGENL
# [16] = biological target: Homeodomain-interacting protein kinase 1 (Homo sapiens, UniProt Q86Z02); test: Inhibition of recombinant human GST-tagged HIPK1 catalytic domain expressed in baculovirus expression system using serine/threonine-9 peptide as substrate incubated for 60 mins in presence of ATP by Z'-LYTE assay
# [17] = biological target: Hepatocyte growth factor receptor (Homo sapiens, UniProt P08581); test: Inhibition of human recombinant His-tagged cMET cytoplasmic domain expressed in baculovirus expression system using tyrosine 6 peptide as substrate after 60 mins in presence of ATP FRET based Z'-LYTE assay
# [18] = biological target: Serine/threonine-protein kinase Nek1 (Homo sapiens, UniProt Q96PY6); test: Inhibition of recombinant human GST-tagged NEK1 catalytic domain (1 to 505 residues) expressed in baculovirus expression system using serine/threonine-7 peptide as substrate incubated for 60 mins in presence of ATP by Z'-LYTE assay
# [19] = biological target: Platelet-derived growth factor receptor alpha (Homo sapiens, UniProt P16234); test: Inhibition of recombinant human GST-tagged PDGFRalpha cytoplasmic domain (550 to 1089 residues) expressed in baculovirus expression system using tyrosine-4 peptide as substrate incubated for 60 mins in presence of ATP by Z'-LYTE assay
# [20] = biological target: Protein kinase C eta type (Homo sapiens, UniProt P24723); test: Inhibition of recombinant full length human His-tagged PRKCH expressed in baculovirus expression system using serine/threonine-7 peptide as substrate incubated for 60 mins in presence of ATP by Z'-LYTE assay
# [21] = biological target: Serine/threonine-protein kinase D2 (Homo sapiens, UniProt Q9BZL6); test: Inhibition of recombinant full length human GST-tagged PRKD2 expressed in baculovirus expression system using serine/threonine-01 peptide as substrate incubated for 60 mins in presence of ATP by Z'-LYTE assay
# [22] = biological target: Rho-associated protein kinase 2 (Homo sapiens, UniProt O75116); test: Inhibition of recombinant human GST-tagged ROCK2 catalytic domain expressed in baculovirus expression system using serine/threonine-13 peptide as substrate incubated for 60 mins in presence of ATP by Z'-LYTE assay
compound,measurement,setting,value
C[C@@H]1C[C@H]1C(=O)N1CCN(c2cnc(C#N)c(-c3cnn(C)c3)n2)C[C@H]1C,Ratio IC50,Homo sapiens [1],> 373
same,Ratio IC50,Homo sapiens [2],847
same,Vd,[3],1.1 L/kg
same,inhibition,[4],13%
same,IC50,[5],> 100 µM
same,IC50,[6],34.7 µM
same,IC50,[7],23.5 µM
same,inhibition,[8],0%
same,inhibition,[9],22%
same,inhibition,[10],-3%
same,inhibition,[11],2%
same,inhibition,Caspase-9 (Homo sapiens),2%
same,IC50,[12],> 100 µM
same,IC50,Ephrin type-A receptor 5,> 100 µM
same,IC50,Ephrin type-A receptor 8,> 100 µM
same,IC50,[13],> 100 µM
same,IC50,[14],> 100 µM
same,IC50,[15],> 100 µM
same,IC50,[16],> 100 µM
same,IC50,[17],> 100 µM
same,IC50,[18],> 100 µM
same,IC50,[19],> 100 µM
same,IC50,[20],> 100 µM
same,IC50,[21],> 100 µM
same,IC50,[22],> 100 µM

# From ChEMBL document CHEMBL4602617, “Discovery and optimization of heteroaryl piperazines as potent and selective PI3Kδ inhibitors” (Bioorg Med Chem Lett, 2020)
